Assay results published in patent publication US20150045410A1, “METHOD OF REGULATING CFTR EXPRESSION AND PROCESSING” (University of Iowa Research Foundation, priority 2012, published 2015).

Legend:
CFTR-ΔF508 [1] = test: Immunoblot (HA antibody) in HeLa cells stably expressing HA-tagged CFTR-ΔF508; type: cell-based; conditions: CFTR-ΔF508-3HA
Description: (Wang, X. et al. Hsp90 cochaperone Aha1 downregulation rescues misfolding of CFTR in cystic fibrosis. Cell 127, 803-815 (2006)): Cell lines or primary cultures were washed with PBS and lysed in freshly prepared lysis buffer (1% Triton, 25 mM Tris pH 7.4, 150 mM NaCl, protease inhibitors (cOmplete™, mini, EDTA-free, Roche)) for 30 min at 4° C. The lysates were centrifuged at 14,000 rpm for 20 min at 4° C., and the supernatant quantified by BCA Protein Assay kit (Pierce). 20 μg (Calu-3) and 50 μg (human primary airway epithelial cultures, HeLa, HEK293T) of protein per lane was separated on a 7% SDS-PAGE gel for western blot analysis. Antibodies were procured for SIN3A (1:1000, R&D Systems), CTCF (1:500, Cell Signaling Technology), CFTR (R-769 (1:2000, CFFT), MM13-4 (1:1000, Millipore), M3A7 (1:500, Millipore), 24-1 (1:1000, R&D Systems)), hemagglutinin (1; 1000, Covance) and α-tubulin (1:10000, Sigma). Protein abundance was quantified by densitometry using an Alphalnnotech Fluorochem Imager (Alphalnnotech). For CFTR, band B and C were quantified separately. All bands were normalized to α-tubulin. Experiments were performed in triplicates per donor and mean and standard error of the mean determined using unpaired two-tailed t-test. […] If signal was detected, the stripping procedure was repeated till no signal was observed. […]

CFTR-ΔF508 [2] = test: CFTR-mediated Cl^− transport (transepithelial current) in primary CF airway epithelia; type: cell-based, human; conditions: multiple donors, oligonucleotide transfection, F&I then GlyH-101
Description: FIG. 27. […] Change in It following F&I+PG-01 treatment of primary CF airway epithelial cells (homozygous for ΔF508-CFTR) with indicated reagents. N=1 donor. PG-01 is a potentiator used along with F&I to increase Cl^− transport.
Airway epithelia from human trachea and primary bronchus removed from organs donated for research were cultured at the air-liquid interface (ALI) (Karp, P. H. et al. An in vitro model of differentiated human airway epithelia. Methods for establishing primary cultures. Methods Mol. Biol. 188, 115-137 (2002)). These studies were approved by the Institutional Review Board of the University of Iowa. Briefly, airway epithelial cells were dissociated from native tissue by pronase enzyme digestion. […]
Transepithelial Cl^− current measurements were made in Ussing chambers about 2 weeks post-seeding (Itani, 0. A. et al. Human cystic fibrosis airway epithelia have reduced Cl− conductance but not increased Na+ conductance. Proc. Natl. Acad. Sci. USA 108, 10260-10265 (2011)). […] Transepithelial Cl^− current was measured under short-circuit current conditions. […] After measuring baseline current, the transepithelial current (It) response to sequential apical addition of 100 μM amiloride (Amil), 100 μM 4,4′-diisothiocyanoto-stilbene-2,2′-disulfonic acid (DIDS), 4.8 mM [Cl^−], 10 μM forskolin and 100 μM 3-isobutyl-1-methylxanthine (IBMX), and 100 μM GlyH-101 was measured. […]

Substance	abundance of the mature, fully glycosylated CFTR band C (CFTR-ΔF508 [1])	CFTR-mediated Cl^− transport (CFTR-ΔF508 [2])
SIN3A DsiRNA: Dicer-substrate siRNA against SIN3A, sense SEQ ID NO: 6, antisense SEQ ID NO: 7 (sense GCGAUACAUGAAUUCAGAUACUACC; antisense GGUAGUAUCUGAAUUCAUGUAUCGCUC; chemistry not given here)	increased	restored
miR-138 mimic: synthetic modified RNA duplex, sense SEQ ID NO: 4, antisense SEQ ID NO: 5, showing miR-138-like activity	increased	restored
